Experimental data from patent US8173651B2, “Pyridine compounds” (Synta Pharmaceuticals Corporation, priority 2003, dated 2012).

test system: adjuvant arthritis (AA) in female Lewis rats; assay: In vivo adjuvant arthritis assay in rats; design: species or system rat; details: oral, once a day for 7 days (day 7-14); dose-dependent; experiments repeated four times; FIG. 1
Experimental: Treatment of adjuvant arthritis in rats: Adjuvant arthritis (AA) was induced in female Lewis rats by the intracutaneous injection (base of the tail) of 0.1 mL of a 10 mg/mL bacterial suspension made from ground, heat-killed Mycobacterium tuberculosis H37Ra suspended in incomplete Freund's adjuvant. Rats were given a test compound orally once a day for 7 days (day 7-14), starting day 7 after mycobacterium induction. The development of polyarthritis was monitored daily by macroscopic inspection and assignment of an arthritis index to each animal, during the critical period (days 10 to 25 post-immunization).
The intensity of polyarthritis was scored according to the following scheme: (a) Grade each paw from 0 to 3 based on erythema, swelling, and deformity of the joints: 0 for no erythema or swelling; 0.5 if swelling is detectable in at least one joint; 1 for mild swelling and erythema; 2 for swelling and erythema of both tarsus and carpus; and 3 for ankylosis and bony deformity.
Maximum score for all 4 paws was thus 12. (b) Grade for other parts of the body: for each ear, 0.5 for redness and another 0.5 if knots are present; 1 for connective tissue swelling (saddle nose); and 1 for the presence of knots or kinks in the tail. The highest possible arthritic index was 16.
Experiments with the AA model were repeated four times.

Question: For `Cc1cccc(/C=N/Nc2cc(N3CCOCC3)cc(OCCN3CCOCC3)n2)c1` [Compound 14, N-(3-Methyl-benzylidene)-N′-[4-morpholin-4-yl-6-(2-morpholin-4-yl-ethoxy)-pyridin-2-yl]-hydrazine], which arthritic score is on record?
Answer: reproducibly reduced the arthritic score

Question: What about the development of polyarthritis of the same compound?
Answer: delayed the development of polyarthritis

test system: IL-12 production in human PBMC or THP-1 cells; assay: Human in vitro assay: inhibition of IL-12 production (ELISA) in stimulated PBMC or THP-1 cells; assay type: cell-based; details: IFNγ plus LPS or SAC stimulation
Description: The biological activities of a heterocyclic compound can be evaluated by a number of cell-based assays. One of such assays can be conducted using cells from human peripheral blood mononuclear cells (PBMC) or human monocytic cell line (THP-1). The cells are stimulated with a combination of human interferon-γ (IFNγ) and lipopolysaccharide or a combination of IFNγ and Staphylococcus aureus Cowan I in the presence of a test compound. The level of inhibition of IL-12 production can be measured by determining the amount of p70 by using a sandwich ELISA assay with anti-human IL-12 antibodies. IC50 of the test compound can then be determined. Specifically, PBMC or THP-1 cells are incubated with the test compound. Cell viability was assessed using the bioreduction of MTS [3-(4,5-dimethylthiazol-2-yl)-5-(3-carboxymethoxyphenyl)-2-(4-sulfophenyl)-2H-tetrazolium] (Promega, Madison, Wis.).
Reagents. Staphylococcus aureus Cowan I (SAC) is obtained from Calbiochem (La Jolla, Calif.), and lipopolysaccharide (LPS, Serratia marscencens) is obtained from Sigma (St. Louis, Mo.). Human and mouse recombinant IFNγ are purchased from Boehringer Mannheim (Mannheim, Germany) and Pharmingen (San Diego, Calif.), respectively.
Human In Vitro Assay. Human PBMC were isolated by centrifugation using Ficoll-Paque (Pharmacia Biotech, Uppsala, Sweden) and prepared in RPMI medium supplemented with 10% fetal calf serum (FCS), 100 U/mL penicillin, and 100 μg/mL streptomycin. PBMC were plated in wells of a 96-well plate at a concentration of 5×10^5 cells/well, and primed by adding IFNγ (30 U/mL) for 22 h and stimulated by adding LPS (1 vg/mL), or by adding IFNγ (100 U/mL) and then stimulated by adding SAC (0.01%). A test pyridine compound was dissolved in DMSO, and added to wells of the 96-well plate. The final DMSO concentration was adjusted to 0.25% in all cultures, including the compound-free control. Human THP-1 cells were plated in wells, primed by adding IFNγ (100 U/mL) for 22 h and stimulated by adding SAC (0.025%) in the presence of different concentrations of the pyridine compound. Cell-free supernatants were taken 18 h later for measurement of cytokines. Cell viability was assessed using the bioreduction of MTS. Cell survival was estimated by determining the ratio of the absorbance in compound-treated groups versus compound-free control.
The supernatant was assayed for the amount of IL-12p40, IL-12p70, or IL-10 by using a sandwich ELISA with anti-human antibodies, i.e., a Human IL-12 p40 ELISA kit from R&D Systems (Berkeley, Calif.), and a Human IL-12 p70 or IL-10 ELISA kit from Endogen (Cambridge, Mass.). Assays were based on the manufacturer's instructions.
The biological activities of pyridine compounds were tested on human PBMC or THP-1 cells.

Question: Which IC50 does the source give for `COc1ccc(CCOc2cc(NN=Cc3c[nH]c4ccccc34)cc(N3CCOCC3)n2)cc1OC` [Compound 1, N-{2-[2-(3,4-Dimethoxy-phenyl)-ethoxy]-6-morpholin-4-yl-pyridin-4-yl}-N′-(1H-indol-3-ylmethylene)-hydrazine] here?
Answer: 0.01 µM

Question: How did the IC50 turn out when `COc1ccc(CCOc2cc(N3CCOCC3)cc(NN=Cc3c[nH]c4ccccc34)n2)cc1OC` [Compound 2, N-{6-[2-(3,4-Dimethoxy-phenyl)-ethoxy]-4-morpholin-4-yl-pyridin-2-yl}-N′-(1H-indol-3-ylmethylene)-hydrazine] was run?
Answer: 0.005 µM

Question: Which IC50 does the source give for `COc1ccc(CCOc2cc(NN=Cc3c[nH]c4ccccc34)nc(N3CCOCC3)c2)cc1OC` [Compound 3, N-{4-[2-(3,4-Dimethoxy-phenyl)-ethoxy]-6-morpholin-4-yl-pyridin-2-yl}-N′-(1H-indol-3-ylmethylene)-hydrazine] here?
Answer: 0.8 µM

Question: For `COc1ccc(CCOc2cc(N3CCOCC3)cc(Nc3ccc4[nH]c(C)c(C)c4c3)n2)cc1OC` [Compound 4, {6-[2-(3,4-Dimethoxy-phenyl)-ethoxy]-4-morpholin-4-yl-pyridin-2-yl}-(2,3-dimethyl-1H-indol-5-yl)-amine], which IC50 is on record?
Answer: 0.197 µM

Question: Which IC50 does the source give for `COc1ccc(CCOc2cc(NN=Cc3cccc(C)c3)nc(N3CCOCC3)c2)cc1OC` [Compound 5, N-{4-[2-(3,4-Dimethoxy-phenyl)-ethoxy]-6-morpholin-4-yl-pyridin-2-yl}-N′-(3-methyl-benzylidene)-hydrazine] here?
Answer: 2 µM

Question: `COc1ccc(CCOc2cc(NN=Cc3cccc(C)c3)cc(N3CCOCC3)n2)cc1OC` [Compound 6, N-{2-[2-(3,4-Dimethoxy-phenyl)-ethoxy]-6-morpholin-4-yl-pyridin-4-yl}-N′-(3-methyl-benzylidene)-hydrazine] was tested. Which IC50 did it give?
Answer: 0.005 µM

Question: `COc1ccc(CCOc2cc(N3CCOCC3)cc(NN=Cc3cccc(C)c3)n2)cc1OC` [Compound 7, N-{6-[2-(3,4-Dimethoxy-phenyl)-ethoxy]-4-morpholin-4-yl-pyridin-2-yl}-N′-(3-methyl-benzylidene)-hydrazine] was tested. Which IC50 did it give?
Answer: 0.0141 µM

Question: With `COc1ccc(CCOc2cc(Nc3ccc4[nH]c(C)c(C)c4c3)cc(N3CCOCC3)n2)cc1OC` [Compound 8, {2-[2-(3,4-Dimethoxy-phenyl)-ethoxy]-6-morpholin-4-yl-pyridin-4-yl}-(2,3-dimethyl-1H-indol-5-yl)-amine] as the compound, how does the IC50 read?
Answer: 0.028 µM

Question: How did the IC50 turn out when `COc1ccc(CCOc2cc(Nc3ccc4[nH]c(C)c(C)c4c3)nc(N3CCOCC3)c2)cc1OC` [Compound 9, {4-[2-(3,4-Dimethoxy-phenyl)-ethoxy]-6-morpholin-4-yl-pyridin-2-yl}-(2,3-dimethyl-1H-indol-5-yl)-amine] was run?
Answer: 0.35 µM

Question: `COc1ccc(CCOc2cc(Nc3cccc(C)c3)nc(N3CCOCC3)c2)cc1OC` [Compound 10, {4-[2-(3,4-Dimethoxy-phenyl)-ethoxy]-6-morpholin-4-yl-pyridin-2-yl}-m-tolyl-amine] was tested. Which IC50 did it give?
Answer: 5 µM

Question: Which IC50 does the source give for `Cc1cccc(C=NNc2cc(OCCN3CCOC3=O)cc(N3CCOCC3)n2)c1` [Compound 11, 3-(2-{2-[N′-(3-methyl-benzylidene)-hydrazino]-6-morpholin-4-yl-pyridin-4-yloxy}-ethyl)oxazolidin-2-one] here?
Answer: 0.927 µM

Question: For `Cc1cccc(C=NNc2nc(OCCN3CCOCC3)c(F)c(N3CCOCC3)c2F)c1` [Compound 12, N-[3,5-Difluoro-4-morpholin-4-yl-6-(2-morpholin-4-yl-ethoxy)-pyridin-2-yl]-N′-(3-methyl-benzylidene)-hydrazine], which IC50 is on record?
Answer: > 1 µM

Question: With `Cc1cccc(/C=N/Nc2c(F)c(OCCN3CCOCC3)nc(N3CCOCC3)c2F)c1` [Compound 13, N-[3,5-Difluoro-2-morpholin-4-yl-6-(2-morpholin-4-yl-ethoxy)-pyridin-4-yl]-N′-(3-methyl-benzylidene)-hydrazine] as the compound, how does the IC50 read?
Answer: 0.148 µM

Question: Which IC50 does the source give for `Cc1cccc(/C=N/Nc2cc(N3CCOCC3)cc(OCCN3CCOCC3)n2)c1` [Compound 14, N-(3-Methyl-benzylidene)-N′-[4-morpholin-4-yl-6-(2-morpholin-4-yl-ethoxy)-pyridin-2-yl]-hydrazine] here?
Answer: 0.025 µM

Question: How did the IC50 turn out when `C(=N\Nc1cc(N2CCOCC2)cc(OCCN2CCOCC2)n1)/c1c[nH]c2ccccc12` [Compound 16, N-(1H-Indol-3-ylmethylene)-N′-[4-morpholin-4-yl-6-(2-morpholin-4-yl-ethoxy)-pyridin-2-yl]-hydrazine] was run?
Answer: 0.0366 µM

Question: How did the IC50 turn out when `Cc1cccc(/C=N/N(C)c2cc(N3CCOCC3)cc(OCCN3CCOCC3)n2)c1` [Compound 17, N-Methyl-N′-(3-methyl-benzylidene)-N-[4-morpholin-4-yl-6-(2-morpholin-4-yl-ethoxy)-pyridin-2-yl]-hydrazine] was run?
Answer: 0.0142 µM

Question: `Cc1cccc(/C=N/Nc2cc(OCCN3CCOC3=O)cc(N3CCOCC3)n2)c1` [Compound 18, 3-(2-{2-[N′-(3-Methyl-benzylidene)-hydrazino]-6-morpholin-4-yl-pyridin-4-yloxy}-ethyl)-oxazolidin-2-one] was tested. Which IC50 did it give?
Answer: 0.927 µM

Question: Which IC50 does the source give for `C(=N\Nc1cc(N2CCOCC2)cc(OCCN2CCOCC2)n1)/c1ccoc1` [Compound 19, N-Furan-3-ylmethylene-N′-[4-morpholin-4-yl-6-(2-morpholin-4-yl-ethoxy)-pyridin-2-yl]-hydrazine] here?
Answer: 5 µM

Question: With `Cc1ccc(N)c(/C=N/Nc2cc(N3CCOCC3)cc(OCCN3CCOCC3)n2)c1` [Compound 20, 4-Methyl-2-{[4-morpholin-4-yl-6-(2-morpholin-4-yl-ethoxy)-pyridin-2-yl]-hydrazonomethyl}-phenylamine] as the compound, how does the IC50 read?
Answer: 0.0114 µM

Question: For `Cc1cccc(/C=N/Nc2cc(N3CCOCC3)cc(OCCN3CCOCC3)[n+]2[O-])c1` [Compound 21, N-(3-Methyl-benzylidene)-N′-[4-morpholin-4-yl-6-(2-morpholin-4-yl-ethoxy)-1-oxy-pyridin-2-yl]-hydrazine], which IC50 is on record?
Answer: 0.086 µM
